Experimental data reported in patent US9296716B2, “Androgen receptor ligands” (THE PROVOST, FELLOWS, FOUNDATION SCHOLARS, & THE OTHER …, priority 2011, dated 2016).

Biological target: T1, Progesterone Receptor (PR) LBD (Homo sapiens, UniProt P06401)
T1 construct: purchased Invitrogen PV4666
T1 sequence (P06401 679-913 limits assumed): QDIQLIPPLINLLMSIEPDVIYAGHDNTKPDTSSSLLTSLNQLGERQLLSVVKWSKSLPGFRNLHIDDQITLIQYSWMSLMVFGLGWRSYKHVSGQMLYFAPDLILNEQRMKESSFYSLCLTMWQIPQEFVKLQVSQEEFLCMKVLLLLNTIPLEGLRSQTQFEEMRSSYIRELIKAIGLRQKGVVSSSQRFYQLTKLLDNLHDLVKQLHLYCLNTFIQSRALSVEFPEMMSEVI
Experiment: TR-FRET SRC1-4 coactivator recruitment assay, PR LBD
Format: biochemical
Conditions: Progesterone = EC80
Description: Compound binding affinities for Progesterone Receptor (PR), Glucocorticoid Receptor (GR), Estrogen Receptor alpha and Estrogen Receptor beta were determined using TR-FRET (Table 2).
Lanthascreen TR-FRET AR Coactivator Assay kit (Invitrogen, cat no. PV4381) was used to screen for potential coactivator disruptors.
TR FRET values were calculated at 10 flashes per well, using a delay time of 100 μs and integration time 200 μs as recommended by the Invitrogen assay guidelines. […] A serial dilution of compounds was firstly prepared in 100×DMSO (Sigma-Aldrich) starting from the maximum desired concentration to achieve a 12 point range concentration using 96-well polypropylene plates (Nalgene Nunc, Rochester, N.Y.). Each 100× solution was diluted to 2× concentration with TR-FRET co-regulator buffer A (Invitrogen proprietary buffer), yielding a final concentration of 1% DMSO in each well.
D11-FxxLF and Tb antibody were premixed in light protecting vials prior to use. A final concentration of DTT 5 mM was used in the assay buffer in order to prevent protein degradation. All plates (agonist and antagonist mode) were incubated between 2 and 4 hours at room temperature protected from light prior to TR-FRET measurement. […] Data was fitted using the sigmoidal dose response (variable slope) available from Graphpad Prism 5. Y=Bottom+(Top-Bottom)/(1+10^((Log IC50−X)*HillSlope))
The same procedure was used for AR T877A (Invitrogen cat no. PV4667), PR (Invitrogen cat no. PV4666), ER-α (Invitrogen cat no. PV4544), ER-β (Invitrogen cat no. PV4541) and GR (Invitrogen cat no. PV4683). The assay was adapted to exclude possible non-specific aggregation mechanism of inhibition by adding very low concentration of detergent Triton X-100 (0.001%) to the assay buffer following the Shoichet review guidelines [Shoichet BK (2006) Screening in a spirit haunted world. Drug Discov Today 11:607-615].

SMILES: COc1cc(/C=N/NC(=O)c2cc3c(ccc4ccccc43)o2)cc(OC)c1O [MDG506]
- effect on PR recruitment of fluorescent labelled SRC1-4 (100 μM to 45 nM): partially inhibit
- IC50 (TR-FRET, ± SEM (n = 6), read-out: NR LBDs IC50 (μM) PR): 27.7 ± 7.3 µM
